From ChEMBL document CHEMBL1141775, “Friedolanostanes and lanostanes from the leaves of Garcinia hombroniana” (2005)

System: Staphylococcus aureus
Experiment: Antibacterial activity against methicillin-resistant Staphylococcus aureus
Assay type: functional

Structure (SMILES): COC(=O)[C@H](C)CC(=O)C[C@@H](C)C1=CC[C@@]2(C)[C@@H]3CC[C@H]4C(C)(C)[C@@H](O)CC[C@]4(C)C3=CC[C@]12C
- MIC: > 128 µg/mL

Structure (SMILES): COC(=O)/C(C)=C/[C@H](O)C[C@@H](C)[C@]1(C)CC=C2[C@@H]3CC[C@H]4C(C)(C)[C@H](O)CC[C@]4(C)[C@@]3(O)CC[C@]21C [GARCIHOMBRONANE B]
- MIC: > 128 µg/mL

Structure (SMILES): CC(C)=C/C=C\[C@@H](C)[C@]1(C)CC=C2[C@@H]3CC[C@H]4C(C)(C)[C@H](O)CC[C@]4(C)[C@@]3(O)CC[C@]21C [GARCIHOMBRONANE F]
- MIC: > 128 µg/mL

Structure (SMILES): C/C(=C\C=C/[C@@H](C)[C@]1(C)CC[C@]2(C)C1=CC[C@@]1(O)[C@H]2CC[C@H]2C(C)(C)[C@H](O)CC[C@@]21C)C(=O)O [GARCIHOMBRONANE G]
- MIC: > 128 µg/mL

Structure (SMILES): C/C(=C\CC[C@@H](C)[C@]1(C)CC[C@]2(C)C1=CC[C@@]1(O)[C@H]2CC[C@H]2C(C)(C)[C@H](O)CC[C@@]21C)C(=O)O [GARCIHOMBRONANE H]
- MIC: > 128 µg/mL

Structure (SMILES): C/C(=C\CC[C@@H](C)[C@]1(C)CC[C@]2(C)C1=CC[C@@]1(O)[C@H]2CC[C@H]2C(C)(C)[C@@H](O)CC[C@@]21C)C(=O)O [GARCIHOMBRONANE I]
- MIC: > 128 µg/mL

Structure (SMILES): COC(=O)[C@H](C)CC(=O)C[C@@H](C)C1=CC[C@@]2(C)[C@@H]3CC[C@H]4C(C)(C)[C@H](O)CC[C@]4(C)C3=CC[C@]12C [GARCIHOMBRONANE J]
- MIC: > 128 µg/mL

Structure (SMILES): COC(=O)/C(C)=C/[C@H](O)C[C@@H](C)[C@]1(C)CC=C2C3=C(CC[C@]21C)[C@@]1(C)CC[C@@H](O)C(C)(C)[C@@H]1CC3 [GARCIHOMBRONANES C]
- MIC: > 128 µg/mL

Structure (SMILES): C[C@H](CC(=O)C[C@@H](C)C1=CC[C@@]2(C)[C@@H]3CC[C@H]4C(C)(C)[C@@H](O)CC[C@]4(C)C3=CC[C@]12C)C(=O)O [GARCIHOMBRONANES D]
- MIC: > 128 µg/mL

Structure (SMILES): C[C@H](CC(=O)C[C@@H](C)C1=CC[C@@]2(C)[C@@H]3CC[C@H]4C(C)(C)[C@H](O)CC[C@]4(C)C3=CC[C@]12C)C(=O)O [GARCIHOMBRONANES E]
- MIC: > 128 µg/mL
